{"source": "paper PMC11311842", "about": "“Radiosynthesis and Preclinical Evaluation of ^18F-Labeled Estradiol Derivatives with Different Lipophilicity for PET Imaging of Breast Cancer” (Cancers, 2024)", "key": {"MCF-7 cells": {"tested_on": "MCF-7 cells", "experiment": "Stability in cells (radio-HPLC of cell lysate)", "format": "in vitro ADME, human", "conditions": "90 min incubation, 37 °C, absence of serum", "protocol": "^18F-TA-Glyco-EE was incubated for 90 min at 37 °C with MCF-7 cells (350,000 cells/well, seeded one day prior to the experiment in 24-well plates) in cell culture medium. After washing twice with ice-cold PBS, the cells were scraped off, and 200 µL PBS was added for resuspension. The cell suspension was transferred to Eppendorf tubes, homogenized using ultrasound (Bandelin sonoplus HD2070 ultrasonic homogenizer, room temperature, BANDELIN electronic GmbH, Berlin, Germany) and then centrifuged. The supernatant was quenched in 10% TFA, and after centrifugation the resulting supernatant was analyzed by radio-HPLC (Chromolith RP-18e, 100 × 4.6 mm, 10–100% acetonitrile (containing 0.1% TFA) in water (containing 0.1% TFA) over 5 min, 4 mL/min)."}, "ER+ MCF-7 cells": {"tested_on": "ER+ MCF-7 cells", "experiment": "Cellular uptake assay in ER+ cells", "format": "cell-based, human", "protocol": "One day prior to the experiment, MCF-7 and MDA-MB-231 cells were seeded in 24-well plates (350,000 cells/well). The cells were washed once with cell medium. The cells were incubated with the respective radiotracer in cell medium (510 µL) for 10, 20, 30, 60, 90, 120 min at 37 °C in the absence and presence of estradiol (E2, final concentration of 72 µM). After incubation, the plates were set on ice and washed with ice-cold PBS twice, following cell lysis and detachment with NaOH (0.1 M, 750 µL, 37 °C). The cells were transferred to counting tubes, and the radioactivity was measured using a γ-counter (Wallac Wizard, PerkinElmer, Waltham, MA, USA). The protein concentration of each well was determined in duplicate using Bradford reagent (Bio-Rad Laboratories GmbH, Feldkirchen, Germany). The cellular uptake assay was performed in 2–4 independent experiments, each performed in quadruplicate for each time point."}, "ER+ MCF-7 tumor slices": {"tested_on": "ER+ MCF-7 tumor slices", "experiment": "In vitro autoradiography of MCF-7 tumor slices", "format": "binding, human", "conditions": "60 min, room temperature, with or without E2 (72 µM)", "protocol": "(§1) MCF-7, MDA-MB231 and T47D tumors grown in nude mice were collected and frozen in a hexane/dry ice bath (−70 °C). Tumor slices (14 µm) were prepared on a cryostat microtome HM 500 O (Microm, Walldorf, Germany), thaw-mounted on HistoBond® adhesive glass slides (Marienfeld, Lauda-Königshofen, Germany) and stored at −80 °C. For in vitro autoradiography studies, the tumor tissue sections were thawed and pre-incubated in incubation buffer (50 mM Tris HCl, 5 mM MgCl2, 0.2% bovine serum albumin (BSA), pH 7.4) at room temperature for 15 min. Then, the sections were transferred to incubation buffer containing ^18F-TA-Glyco-EE (3–5 MBq) in a total volume of 70 mL. For the determination of non-specific binding, separate sections were incubated with ^18F-TA-Glyco-EE in the presence of E2 (72 µM). After an incubation time of 60 min, the sections were washed three times with incubation buffer, followed by a short dip in ice-cold distilled water. The slices were carefully dried in a stream of warm air and finally placed on a phosphor imager screen (Fuji Imaging Plate BAS-IP SR 2025 E) overnight prior to readout (30 µm resolution) using the HD-CR-35 Bio scanner (Elysia-Raytest, Straubenhardt, Germany). […] Regions of interest were analyzed from 3–4 tumor slices from the MCF-7, MDA-MB231 and T47D tumors, and mean values of the intensity per area were calculated."}, "ER+ T47D tumor slices": {"tested_on": "ER+ T47D tumor slices", "experiment": "In vitro autoradiography of T47D tumor slices", "format": "binding, human", "conditions": "60 min, room temperature, with or without E2 (72 µM)", "protocol": "as §1"}, "[1]": {"tested_on": "ER- MDA-MB-231 tumor slices", "experiment": "In vitro autoradiography of MDA-MB-231 tumor slices", "format": "binding, human", "conditions": "60 min, room temperature, with or without E2 (72 µM)", "protocol": "as §1"}}, "data": [{"compound": "CC(=O)OC1C(C[18F])OC(n2cc(C3(O)CCC4C5CCc6cc(O)ccc6C5CCC43C)nn2)C(OC(C)=O)C1OC(C)=O", "note": "(stereo not drawn) [^18F-TA-Glyco-EE]", "values": [{"measurement": "Stability in MCF-7 cells (intracellular radioactivity, HPLC)", "setting": "MCF-7 cells", "result": "without any significant deacetylation"}, {"measurement": "Cellular uptake relative to ^18F-PEG-EE and ^18F-Glyco-EE", "setting": "ER+ MCF-7 cells; ER+ MCF-7 cells", "result": 10, "unit": "fold"}, {"measurement": "Cellular uptake in MCF-7 cells", "setting": "ER+ MCF-7 cells; after 60 min, 37 °C, absence of E2", "result": 270, "unit": "%/mg"}, {"measurement": "Binding to MCF-7 tumor sections (autoradiography)", "setting": "ER+ MCF-7 tumor slices", "result": "high specific binding"}, {"measurement": "Binding to T47D tumor sections (autoradiography)", "setting": "ER+ T47D tumor slices", "result": "high specific binding"}, {"measurement": "Binding to MDA-MB-231 tumor sections (autoradiography)", "setting": "[1]", "result": "negligible binding"}]}]}
